Laboratory results taken from ChEMBL document CHEMBL4219045 (Bioorg Med Chem, 2018).
Positions of bridges follow the written chain, without caps; N, C: chain ends. Residues, ends and D or L forms follow the SMILES beside them.

Legend:
[1] = target: Sodium channel protein type 2 subunit alpha (Homo sapiens, UniProt Q99250); assay: Inhibition of Nav1.2 (unknown origin) expressed in xenopus oocytes at -80 mV holding potential by two-electrode voltage-clamp method; type: cell-based
[2] = target: Sodium channel protein type 8 subunit alpha (Homo sapiens, UniProt Q9UQD0); assay: Inhibition of Nav1.6 (unknown origin)
[3] = target: Sodium channel protein type 5 subunit alpha (Homo sapiens, UniProt Q14524); assay: Inhibition of Nav1.5 (unknown origin) expressed in xenopus oocytes at -80 mV holding potential by two-electrode voltage-clamp method; type: cell-based
[4] = target: Acetylcholine receptor subunit epsilon (Homo sapiens, UniProt Q04844); assay: Inhibition of nAChR epsilon (unknown origin)
[5] = Toxicity in mouse; type: organism-based; conditions: in vivo
[6] = target: T1, Transient receptor potential cation channel subfamily V member 6 (Homo sapiens, UniProt Q9H1D0); assay: Inhibition of TRPV6 (unknown origin) expressed in HEK293 cells by whole cell patch clamp assay; type: cell-based
T1 sequence (Q9H1D0 whole entry): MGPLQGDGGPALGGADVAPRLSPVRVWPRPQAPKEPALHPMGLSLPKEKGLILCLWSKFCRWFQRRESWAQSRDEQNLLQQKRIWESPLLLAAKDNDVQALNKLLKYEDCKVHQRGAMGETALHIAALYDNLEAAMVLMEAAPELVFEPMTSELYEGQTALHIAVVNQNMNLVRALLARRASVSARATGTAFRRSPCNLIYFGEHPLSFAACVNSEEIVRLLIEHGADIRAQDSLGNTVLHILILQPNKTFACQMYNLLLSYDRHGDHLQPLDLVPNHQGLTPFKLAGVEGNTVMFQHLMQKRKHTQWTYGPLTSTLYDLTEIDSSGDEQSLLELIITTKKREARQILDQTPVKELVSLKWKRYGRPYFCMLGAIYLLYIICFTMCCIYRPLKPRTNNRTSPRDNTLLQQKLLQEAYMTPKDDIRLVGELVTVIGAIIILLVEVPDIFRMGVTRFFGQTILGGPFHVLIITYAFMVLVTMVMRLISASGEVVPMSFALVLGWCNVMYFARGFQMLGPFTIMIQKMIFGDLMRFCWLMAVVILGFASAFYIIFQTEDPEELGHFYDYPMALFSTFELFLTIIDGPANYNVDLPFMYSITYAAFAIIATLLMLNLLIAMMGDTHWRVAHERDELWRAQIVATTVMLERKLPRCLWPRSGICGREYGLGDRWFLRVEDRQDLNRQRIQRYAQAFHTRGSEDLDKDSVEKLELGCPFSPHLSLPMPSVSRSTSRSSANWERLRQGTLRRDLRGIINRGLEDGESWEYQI

[7] = target: DPP4 (dipeptidyl peptidase 4) (Homo sapiens, UniProt P27487); assay: Stability in plasma (unknown origin) assessed as DPP4-mediated drug degradation by measuring half life; type: ADME
Chain of DPP4 (dipeptidyl peptidase 4) (P27487 whole entry): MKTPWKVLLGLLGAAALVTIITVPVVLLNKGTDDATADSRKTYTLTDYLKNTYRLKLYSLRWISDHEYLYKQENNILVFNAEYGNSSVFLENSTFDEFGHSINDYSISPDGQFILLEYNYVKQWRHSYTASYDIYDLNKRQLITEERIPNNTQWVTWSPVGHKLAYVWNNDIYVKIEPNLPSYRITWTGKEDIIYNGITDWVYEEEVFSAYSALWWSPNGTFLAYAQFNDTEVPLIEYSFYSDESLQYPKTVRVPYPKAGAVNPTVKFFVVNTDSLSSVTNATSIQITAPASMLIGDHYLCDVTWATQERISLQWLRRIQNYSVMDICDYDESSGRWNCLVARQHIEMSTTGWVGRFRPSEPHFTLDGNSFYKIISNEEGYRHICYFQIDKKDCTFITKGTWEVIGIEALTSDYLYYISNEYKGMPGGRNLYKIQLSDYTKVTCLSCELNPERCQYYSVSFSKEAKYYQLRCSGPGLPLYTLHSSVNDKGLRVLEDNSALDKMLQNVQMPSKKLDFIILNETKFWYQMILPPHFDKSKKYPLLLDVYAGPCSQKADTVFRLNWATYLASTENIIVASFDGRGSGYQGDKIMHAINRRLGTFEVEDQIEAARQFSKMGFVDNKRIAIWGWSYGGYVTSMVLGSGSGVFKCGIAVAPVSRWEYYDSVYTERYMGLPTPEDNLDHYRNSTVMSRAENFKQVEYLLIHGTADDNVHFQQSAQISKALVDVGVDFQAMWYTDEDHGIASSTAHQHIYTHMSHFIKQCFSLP

Chain of Sodium channel protein type 5 subunit alpha (Q14524 whole entry): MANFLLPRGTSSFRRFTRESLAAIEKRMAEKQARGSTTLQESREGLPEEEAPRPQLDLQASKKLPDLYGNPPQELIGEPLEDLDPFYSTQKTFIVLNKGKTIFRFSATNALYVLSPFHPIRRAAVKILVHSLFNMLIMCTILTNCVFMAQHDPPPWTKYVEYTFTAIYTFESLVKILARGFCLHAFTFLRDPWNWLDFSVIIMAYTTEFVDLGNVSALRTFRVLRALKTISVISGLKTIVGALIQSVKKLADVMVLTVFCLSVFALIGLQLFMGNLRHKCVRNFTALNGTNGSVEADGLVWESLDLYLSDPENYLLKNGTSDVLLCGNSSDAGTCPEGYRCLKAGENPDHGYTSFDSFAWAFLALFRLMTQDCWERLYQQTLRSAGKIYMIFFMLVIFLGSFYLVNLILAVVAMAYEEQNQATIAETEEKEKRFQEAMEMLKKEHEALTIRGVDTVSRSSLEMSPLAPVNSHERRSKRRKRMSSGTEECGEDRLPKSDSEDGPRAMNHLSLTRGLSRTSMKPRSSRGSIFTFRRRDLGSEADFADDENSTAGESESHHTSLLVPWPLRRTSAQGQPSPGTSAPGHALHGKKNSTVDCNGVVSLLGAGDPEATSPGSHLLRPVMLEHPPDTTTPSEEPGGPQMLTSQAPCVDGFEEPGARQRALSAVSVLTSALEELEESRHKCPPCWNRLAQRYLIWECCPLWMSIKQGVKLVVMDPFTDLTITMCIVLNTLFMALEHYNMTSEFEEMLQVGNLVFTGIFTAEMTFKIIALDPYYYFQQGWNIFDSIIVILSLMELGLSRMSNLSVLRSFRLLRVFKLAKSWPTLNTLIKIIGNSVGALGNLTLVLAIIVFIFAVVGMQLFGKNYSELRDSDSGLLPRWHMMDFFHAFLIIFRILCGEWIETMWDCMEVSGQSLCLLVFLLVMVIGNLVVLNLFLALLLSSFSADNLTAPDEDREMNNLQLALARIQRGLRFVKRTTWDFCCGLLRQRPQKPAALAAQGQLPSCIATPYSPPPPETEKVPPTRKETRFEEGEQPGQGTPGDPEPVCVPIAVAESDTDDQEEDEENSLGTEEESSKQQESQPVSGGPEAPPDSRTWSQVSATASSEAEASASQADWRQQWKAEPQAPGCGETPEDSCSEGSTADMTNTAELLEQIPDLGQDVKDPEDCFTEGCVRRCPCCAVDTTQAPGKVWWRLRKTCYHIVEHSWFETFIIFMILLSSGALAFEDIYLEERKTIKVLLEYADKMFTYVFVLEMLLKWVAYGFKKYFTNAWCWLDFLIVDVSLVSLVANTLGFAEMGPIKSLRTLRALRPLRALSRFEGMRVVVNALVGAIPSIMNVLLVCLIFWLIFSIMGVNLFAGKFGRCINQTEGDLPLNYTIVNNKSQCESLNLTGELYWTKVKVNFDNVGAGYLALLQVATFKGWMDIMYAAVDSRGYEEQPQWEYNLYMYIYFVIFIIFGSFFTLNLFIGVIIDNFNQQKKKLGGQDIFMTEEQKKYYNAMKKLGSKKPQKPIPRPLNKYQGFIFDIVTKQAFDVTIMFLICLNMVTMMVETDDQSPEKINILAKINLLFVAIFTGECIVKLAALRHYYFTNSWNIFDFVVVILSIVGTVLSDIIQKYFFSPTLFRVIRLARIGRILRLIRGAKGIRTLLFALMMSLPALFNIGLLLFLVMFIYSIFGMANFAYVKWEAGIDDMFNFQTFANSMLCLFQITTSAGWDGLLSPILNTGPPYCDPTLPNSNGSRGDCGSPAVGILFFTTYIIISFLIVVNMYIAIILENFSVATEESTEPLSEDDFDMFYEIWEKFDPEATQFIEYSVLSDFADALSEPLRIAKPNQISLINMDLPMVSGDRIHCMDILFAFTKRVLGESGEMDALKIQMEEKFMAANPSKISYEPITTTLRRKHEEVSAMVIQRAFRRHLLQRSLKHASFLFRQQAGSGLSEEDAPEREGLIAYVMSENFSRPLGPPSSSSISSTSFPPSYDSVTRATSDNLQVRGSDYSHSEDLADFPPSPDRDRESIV
Chain of Acetylcholine receptor subunit epsilon (Q04844 whole entry): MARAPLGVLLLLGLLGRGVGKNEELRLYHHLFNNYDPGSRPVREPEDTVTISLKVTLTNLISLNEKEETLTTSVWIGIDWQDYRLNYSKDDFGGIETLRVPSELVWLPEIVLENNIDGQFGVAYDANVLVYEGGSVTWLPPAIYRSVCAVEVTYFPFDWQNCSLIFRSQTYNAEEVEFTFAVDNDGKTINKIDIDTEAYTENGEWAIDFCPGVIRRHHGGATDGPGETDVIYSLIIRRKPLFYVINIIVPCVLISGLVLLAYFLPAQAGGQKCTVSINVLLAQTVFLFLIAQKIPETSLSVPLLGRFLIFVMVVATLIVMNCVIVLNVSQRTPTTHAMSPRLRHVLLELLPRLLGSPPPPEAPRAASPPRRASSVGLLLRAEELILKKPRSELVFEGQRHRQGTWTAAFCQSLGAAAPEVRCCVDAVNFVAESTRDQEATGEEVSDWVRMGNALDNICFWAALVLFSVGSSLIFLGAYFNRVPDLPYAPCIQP

Compound: CSCC[C@@H]1NC(=O)CNC(=O)[C@H](CCC(=O)O)NC(=O)[C@@H]2CSSC[C@H](NC(=O)[C@@H](N)Cc3ccc(O)cc3)C(=O)N[C@@H](CCC(N)=O)C(=O)N[C@@H](CCCCN)C(=O)N[C@@H](Cc3c[nH]c4ccccc34)C(=O)N[C@@H](CCSC)C(=O)N[C@@H](Cc3c[nH]c4ccccc34)C(=O)N[C@@H]([C@@H](C)O)C(=O)N[C@H]3CSSC[C@H](NC(=O)[C@H](C(C)C)NC1=O)C(=O)N[C@@H](CCCNC(=N)N)C(=O)N[C@@H](CC(C)C)C(=O)N[C@@H](Cc1c[nH]c4ccccc14)C(=O)N[C@H](C(=O)N[C@@H](CCCCN)C(=O)N[C@@H](CCCCN)C(=O)N[C@@H](CCCCN)C(=O)N[C@@H](CC(C)C)C(=O)N[C@@H](Cc1c[nH]c4ccccc14)C(=O)O)CSSC[C@H](NC(=O)[C@H](CCCCN)NC(=O)[C@H](CCCNC(=N)N)NC(=O)[C@H](CCC(=O)O)NC(=O)[C@H](CO)NC(=O)[C@H](CC(=O)O)NC3=O)C(=O)N2
- IC50 [1]: 41 nM
- IC50 [2]: 26 nM
- IC50 [3]: 79 nM

Compound: CC[C@H](C)[C@H](NC(=O)[C@H](Cc1ccc(O)cc1)NC(=O)[C@H](Cc1cnc[nH]1)NC(=O)[C@@H]1CSSC[C@H](NC(=O)[C@@H]2CCCN2C(=O)[C@H](CCCNC(=N)N)NC(=O)[C@H](CC(C)C)NC(=O)[C@H](CC(=O)O)NC(=O)[C@@H]2CCCN2C(=O)[C@H](CCCCN)NC(=O)CNC(=O)CN)C(=O)N[C@@H](Cc2cnc[nH]2)C(=O)N2CCC[C@H]2C(=O)N2CCC[C@H]2C(=O)N1)C(=O)N1CCC[C@H]1C(=O)N[C@@H](CCCNC(=N)N)C(=O)N1CCC[C@H]1C(=O)N[C@@H](CCCCN)C(=O)N1CCC[C@H]1C(=O)N[C@@H](CCCNC(=N)N)C(=O)O (H-GGKPDLRPCHPPCHYIPRPKPR-OH; disulfide 9-13)
- IC50 [4]: 50 nM
- LD50 [5]: 0.33 mg/kg

Compound: H-KEFLHPSKVDLPR-OH [SOR-C13]
- IC50 [6]: 14 nM

Compound: H-SDGTFTSDLSKQMEEEAVRLFIEWLKNGGPSGAPPPS-NH2
- half-life [7]: 2 min
